The source of these data is paper PMC10263210, “Design, Synthesis and Biological Evaluation of Novel MDH Inhibitors Targeting Tumor Microenvironment” (Pharmaceuticals, 2023).

Each structure is given as a SMILES string.

The test system of data set [1] is CD73. Briefly: CD73 ELISA. The class given is cell-based, human. To be noted: A549 cells; for CD73 level (%): hypoxic conditions, 0 μM = 100. The method, then: (§1) It has been reported that CD73 expression is induced by HIF-1α under hypoxic conditions. Therefore, we examined whether the expression of CD73 is inhibited by compound 50 under hypoxia in A549 lung cancer cells. […] To confirm the effect of compound 50 on CD73 expression, we performed ELISA for CD73.
The prepared samples were incubated with the same amount of antibody cocktail for 1 h at room temperature and then washed three times with PT buffer. After washing, the plates were developed by adding 100 µL of TMB development solution, and the reaction was stopped by adding 100 µL of stop solution. The amount of CD73 was quantitatively measured according to the instructions on the Human CD73 Simplestep ELISA kit (Abcam, Cambridge, UK).

Another data set has as its system A549 cells. Description: Intracellular ATP content (ATPlite). The class given is cell-based, human. To be noted: 6 h. As to the method: Malate transported to the interior of the mitochondria is oxidized to OAA by mitochondrial MDH2, thereby generating NADH, which then enters the ETC to produce ATP. Because inhibition of MAS is expected to reduce ATP production in cancer cells, the total amount of ATP was measured after treatment with compound 50.
A549 cells (1 × 10^4 cells/96-well plate) were incubated for 6 h with or without drugs. After removing the supernatant, an ATP assay was performed using ATPlite (PerkinElmer, Waltham, MA, USA) according to the manufacturer’s instructions. ATP content was measured using a luminometer (Synergy HTX multimode reader, Winoski, VT, USA).

The next data set has as its system HIF-1α. Description: Western blot of HIF-1α and its target genes under hypoxia. It is filed as cell-based, human. To be noted: A549 cells, hypoxia. As to the method: Previously, it has been reported that the inhibition of MDH1 or MDH2 enzymes is related to HIF-1a expression levels. We investigated whether compound 50 decreases HIF-1α accumulation in A549 cells (Figure 6). […] Additionally, we confirmed that compound 50 suppressed the protein expression of HIF-1α target genes, such as GLUT1 and PDK1 (Figure 6), as clearly shown by the Western blot assay.
(§2) Human lung carcinoma A549 cells were cultured in Dulbecco’s modified Eagle’s medium and H460 cells were cultured in RPMI 1640 medium containing 10% fetal bovine serum and 1% penicillin/streptomycin at 37 °C with a 5% Co2 hypoxia experimental condition. The cells were grown in the hypoxia chamber (1% O2, 94% N2, and 5% Co2 in a multigas incubator)
(§3) The cells were lysed with RIPA buffer (Millipore, Billerica, MA, USA) containing a protease inhibitor cocktail (Roche, Basel, Switzerland) for 15 min at 4 °C and centrifuged at 12,000 rpm for 10 min. The lysates were quantified using a protein assay kit (Bio-Rad, Hercules, CA, USA). The lysates were subjected to an SDS-PAGE analysis and transferred to PVDF membranes (Millipore, Billerica, MA, USA). The proteins were identified using the appropriate antibodies: HIF-1α (BD Transduction Laboratories, San Diego, CA, USA), pyruvate dehydrogenase kinase 1 (PDK1) (Cell Signaling, Danvers, MA, USA), GLUT1 and β-action (Santa Cruz Biotechnology, Danvers, MA, USA), and CD73 (Proteintech, Rosemont, IL, USA).

A further data set addresses T1, human recombinant MDH1 (Homo sapiens, UniProt P40925).
T1 construct: purchased BioVision
T1 sequence (P40925 1-334): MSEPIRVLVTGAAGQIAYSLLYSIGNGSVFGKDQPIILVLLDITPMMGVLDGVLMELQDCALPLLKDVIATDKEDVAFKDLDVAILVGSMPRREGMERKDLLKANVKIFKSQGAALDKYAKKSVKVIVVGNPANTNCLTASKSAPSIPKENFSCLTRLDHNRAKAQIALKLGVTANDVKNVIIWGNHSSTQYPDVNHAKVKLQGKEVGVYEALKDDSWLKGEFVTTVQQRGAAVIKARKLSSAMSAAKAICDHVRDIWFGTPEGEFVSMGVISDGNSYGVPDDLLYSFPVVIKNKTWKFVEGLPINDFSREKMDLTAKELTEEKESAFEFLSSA
Briefly: MDH1 enzyme activity assay (oxaloacetate-dependent NADH oxidation). It is filed as biochemical. Conditions: means of three experiments. An excerpt:
To develop the dual inhibitors of MDH1 and MDH2, we screened the newly synthesized LW1497 derivatives using MDH and MDH2 enzyme assays. LW1497 was used as the positive control for the MDH1/2 dual inhibitor. We evaluated the ability of the synthesized compounds to inhibit human recombinant MDH1 and MDH2 enzymatic activity using an oxaloacetate-dependent NADH oxidation assay (Table 1, Table 2, Table 3, Table 4, Table 5 and Table 6). Our SAR optimization strategy focused on four different parts of LW1497: (A) the introduction of various groups at different positions on the amide phenyl ring; (B) the replacement of the 3-(4-(2,4,4-trimethylpentan-2-yl) alkyl chain; (C) the alteration of the amide portion; and (D) the modification of the oxypropanamide linker portion (Figure 1).
The activities of MDH1 and MDH2 were confirmed using an oxaloacetate-dependent NADH oxidation assay. Experiments were conducted using 100 mM of potassium phosphate buffer (pH 7.4) and human recombinant MDH1 (BioVision) and MDH2 (BioVision), and the results were obtained by measuring the absorbance at 340 nm. Enzyme activity was measured using a plate reader at a wavelength of 340 nm.

Data set [2] is described as follows: Lactate consumption in treated cells. The class given is cell-based. To be noted: cells treated with compound. An excerpt: In contrast, high aerobic glycolysis distinguishes cancer cells from normal cells and has been exploited to detect tumors in vivo. […] Cancer cells consume the secreted lactate to produce ATP through the TCA cycle and oxidative phosphorylation processes. Some cancer cells use lactate as a substrate for TCA intermediates via monocarboxylate transporters (MCT1/4) as well as for ATP production. Lactate can be converted to pyruvate using lactate dehydrogenase (LDH) and can be further converted to acetyl-CoA by […] for fatty acid synthesis.

The next data set concerns A549 lung cancer cells. Briefly: Cell growth inhibition assay (SRB), A549. It is filed as cell-based. Conditions: Homo sapiens, means of three experiments, read-out: Cell Viability IC50 A549. As to the method: At the same time, we investigated the effect of the compounds on the growth inhibition of A549 and H460 lung cancer cells bearing KRAS and LKB1 mutations. […] Compound 50 containing a piperidine linker was selected for further analysis.
as §2
Cell growth inhibition was assessed using sulforhodamine B (SRB) as described in [34]. The cells were fixed with 10% formalin (Sigma-Aldrich) and stained with 0.4% SRB. Protein-bound dye was dissolved in 10 mM of Tris, and its optical density was measured at 540 nm.

The test system of data set [3] is CD73. Description: Western blot of CD73 expression under hypoxia. It is filed as cell-based, human. To be noted: A549 cells. The method, then:
as §1, §2, §3
On the technique in general: Immunoblotting shows a protein as a band on a membrane.

In the case of `CC(C)(C)CC(C)(C)c1ccc(N2CCC(C(=O)Nc3cccc(OC(F)(F)F)c3)CC2)cc1` [Compound 50, N-(3-(Trifluoromethoxy)phenyl)-1-(4-(2,4,4-trimethylpentan-2-yl)phenyl)piperidine-4-carboxamide], the melting point fell in the range of 139 to 140 °C. The CD73 levels entry in the data set on CD73 [1] (ELISA) is “reduced CD73 levels in A549 cells in a dose-dependent manner”. Also, the “CD73 level (%)” value with CD73 [1] (2.5 μM) worked out at 90%. Besides, the “CD73 level (%)” value in the data set on CD73 [1] (5.0 μM) came out at 84%. For the same molecule, the “CD73 level (%)” value in the data set with CD73 [1] (10 μM) was 68%. In addition, the ATP level result in the data set with A549 cells was “reduced ATP level”. Besides, in the data set with HIF-1α, the HIF-1α accumulation result is given as “decreased HIF-1α accumulation in a dose-dependent manner”. Also, the “protein expression of HIF-1α target genes GLUT1 and PDK1” value in the data set on HIF-1α (Western blot) is given as “suppressed”. The concentration for half-maximal inhibition (IC50) on human recombinant MDH1 was found to be 3.33 ± 0.18 µM. Also, the Lactate consumption result in data set [2] was “did not change significantly”. Moreover, the IC50 in the data set on A549 lung cancer cells is 3.94 ± 0.04 µM. The “CD73 expression increased by HIF-1α” value in the data set on CD73 [3] is “significantly decreased”.

Broadly, the IC50 is the concentration that inhibits the measured activity by half. As usually defined, the melting point is the temperature of the solid-liquid transition.
